Columns and labels:
[1] = target: T1, GABAA receptor subunit combination α2β1γ1 (Homo sapiens, UniProt P18505+P47869); test: Whole cell patch-clamp of HEK 293 cells transiently transfected with human GABA-A receptors, GABA concentration-response; type: cell-based; conditions: HEK 293 cells transiently expressing α2β1γ1; GABA concentration-response curve
T1 construct: expressed in transfected cells; host or cells: HEK 293 cells, transient, calcium phosphate precipitation
T1 sequence (P47869 29-451): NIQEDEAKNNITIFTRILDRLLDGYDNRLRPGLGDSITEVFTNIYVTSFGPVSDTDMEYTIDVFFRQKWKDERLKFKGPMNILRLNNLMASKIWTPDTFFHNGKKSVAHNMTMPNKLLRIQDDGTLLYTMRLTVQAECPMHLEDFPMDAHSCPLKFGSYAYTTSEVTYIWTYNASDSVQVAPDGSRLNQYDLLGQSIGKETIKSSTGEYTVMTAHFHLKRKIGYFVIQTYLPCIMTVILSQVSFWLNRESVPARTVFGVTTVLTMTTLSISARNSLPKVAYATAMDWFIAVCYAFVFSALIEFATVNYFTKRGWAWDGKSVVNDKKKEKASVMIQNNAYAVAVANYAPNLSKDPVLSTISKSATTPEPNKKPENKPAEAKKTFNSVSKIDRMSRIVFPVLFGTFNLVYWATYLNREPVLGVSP
T1 sequence (P18505 26-474): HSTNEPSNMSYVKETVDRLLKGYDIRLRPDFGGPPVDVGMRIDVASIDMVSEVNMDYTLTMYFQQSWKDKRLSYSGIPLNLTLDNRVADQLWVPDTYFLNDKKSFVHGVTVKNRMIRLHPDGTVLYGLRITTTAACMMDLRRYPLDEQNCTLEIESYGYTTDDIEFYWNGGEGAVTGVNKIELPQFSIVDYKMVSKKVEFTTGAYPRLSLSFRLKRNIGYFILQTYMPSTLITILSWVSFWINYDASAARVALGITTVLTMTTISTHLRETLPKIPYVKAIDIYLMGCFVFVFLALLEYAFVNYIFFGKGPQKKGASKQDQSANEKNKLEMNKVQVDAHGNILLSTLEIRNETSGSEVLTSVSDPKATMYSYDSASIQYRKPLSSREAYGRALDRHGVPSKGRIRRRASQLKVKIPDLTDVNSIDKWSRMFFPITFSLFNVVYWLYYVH
T1 sequence (Q8N1C3 36-465 partner): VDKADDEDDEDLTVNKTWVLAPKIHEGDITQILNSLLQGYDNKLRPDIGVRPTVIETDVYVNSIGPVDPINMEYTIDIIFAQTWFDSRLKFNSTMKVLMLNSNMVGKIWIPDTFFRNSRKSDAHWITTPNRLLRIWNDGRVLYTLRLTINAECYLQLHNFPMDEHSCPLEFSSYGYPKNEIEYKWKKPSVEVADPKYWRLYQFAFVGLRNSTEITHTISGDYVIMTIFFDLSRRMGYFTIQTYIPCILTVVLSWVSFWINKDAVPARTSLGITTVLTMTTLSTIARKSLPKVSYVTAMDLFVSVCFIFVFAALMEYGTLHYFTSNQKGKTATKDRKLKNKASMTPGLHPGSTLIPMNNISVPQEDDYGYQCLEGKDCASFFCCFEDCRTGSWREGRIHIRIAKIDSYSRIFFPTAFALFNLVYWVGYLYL
Protocol: (§1) Experiments were performed on HEK 293 cells transiently transfected with human cDNA combinations α2β1 γ1, and α2β1θγ1 (4 μgs of cDNA total per cover-slip) using calcium phosphate precipitation (Chen and Okayama, 1988) as previously described (Hadingham et al, 1993). Glass cover-slips containing the cells in a monolayer culture were transferred to a perspex chamber on the stage of Nikon Diaphot inverted microscope. Cells were continuously perfused with a solution containing 124 mM NaCl, 2 mM KCl, 2 mM CaCl2, 1 mM MgCl2, 1.25 mM KH2PO4, 25 mM NaHCO3, 11 mM D-glucose, at pH 7.2, and observed using phase-contrast optics. Patch-pipettes were pulled with an approximate tip diameter of 2 μm and a resistance of 4MΩ with borosilicate glass and filled with 130 mM CsCl, 10 mM HEPES, 10 mM EGTA, 3 mM Mg^+-ATP, pH adjusted to 7.3 with CsOH. Cells were patch-clamped in whole-cell mode using an Axopatch 200B patch-clamp amplifier. Drug solutions were applied by a double-barrelled pipette assembly, controlled by a stepping motor attached to a Prior manipulator, enabling rapid equilibration around the cell. […] Curves were fitted using a non-linear square-fitting program to the equation f(x)=BMAX/[1+(EC50/x)^n] where x is the drug concentration, EC50 is the concentration of drug eliciting a half-maximal response and n is the Hill coefficient. EC50's were analysed by unpaired students t-test.

[2] = target: T2, GABAA receptor subunit combination α2β1θγ1 (Homo sapiens, UniProt P18505+P47869+Q9UN88); test: as above; type: cell-based; conditions: HEK 293 cells transiently expressing α2β1θγ1; GABA concentration-response curve
T2 construct: expressed in transfected cells; host or cells: HEK 293 cells, transient, calcium phosphate precipitation
Protocol: as §1

T2 sequence (Q9UN88 22-632, one chain of several): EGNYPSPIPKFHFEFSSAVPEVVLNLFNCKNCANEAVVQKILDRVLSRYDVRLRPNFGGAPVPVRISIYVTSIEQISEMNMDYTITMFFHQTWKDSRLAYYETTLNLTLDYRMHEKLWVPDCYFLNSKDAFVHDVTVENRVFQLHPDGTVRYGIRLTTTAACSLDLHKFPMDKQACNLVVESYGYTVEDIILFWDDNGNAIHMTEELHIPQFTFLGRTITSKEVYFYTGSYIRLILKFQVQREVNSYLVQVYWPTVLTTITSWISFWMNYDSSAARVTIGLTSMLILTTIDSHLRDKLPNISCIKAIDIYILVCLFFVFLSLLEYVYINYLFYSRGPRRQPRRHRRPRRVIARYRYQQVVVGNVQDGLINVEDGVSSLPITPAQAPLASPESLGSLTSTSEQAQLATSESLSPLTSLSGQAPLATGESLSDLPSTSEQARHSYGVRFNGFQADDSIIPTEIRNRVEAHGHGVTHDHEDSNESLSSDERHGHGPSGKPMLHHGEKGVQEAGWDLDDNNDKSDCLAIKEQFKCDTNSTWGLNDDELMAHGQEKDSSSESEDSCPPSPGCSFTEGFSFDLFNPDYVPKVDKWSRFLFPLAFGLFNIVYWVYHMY

Slope (Hill coefficient) [1]: 1.6 ± 0.2
Slope (Hill coefficient) [2]: 1.5 ± 0.1
Compound: NCCCC(=O)O [GABA, Gamma-amino butyric acid]

— patent US6555341B1, “Human theta subunit of the GABAa receptor” (Merck Sharp & Dohme Ltd., priority 1997, dated 2003)
